Laboratory results: patent US8680134B2, “Triptans for the treatment of psoriasis” (priority 2009, dated 2014)
Entries after “also recorded” stand apart in the source; their conditions may differ.

How the values were obtained:
[1] = test system: psoriasis lesions (scales) on elbow; experiment: Example 1: topical sumatriptan cream on one elbow, then the other, in a subject with chronic psoriasis; assay type: in vivo, human; settings: cream 0.04% w/w sumatriptan
Experimental: A subject with chronic psoriasis was administered a cream composed of 0.04% w/w sumatriptan, Dimethicon, Capric Caprylic triglyceride, Mineral oil, Cetyl alcohol & Glyceryl stearate & PEG-75 & Ceteth-20 & Steareth-20, Cetearyl alcohol, Shea butter, Glycerin, Triclosan, Propylene Glycol, Sodium Benzoate, Methylisothiazolinone in water. It was used for five days, once daily, on one elbow. […] No change was observed on psoriasis lesions on the untreated side. The subject was instructed to use the cream once daily on the complementary elbow.

[2] = test system: psoriasis scales on both elbows; experiment: Example 2: sumatriptan cream on left elbow versus carrier cream on right elbow in the same subject; assay type: in vivo, human
Description: A subject with scales on both elbows was recruited. The subject used twice daily for 5 days two different creams: • a.
The abovementioned design eliminates the mild possible therapeutic effect of an emollient on scales and healing. The mode of treatment eliminates as well the possibility of self healing or placebo effect.

`CNS(=O)(=O)Cc1ccc2[nH]cc(CCN(C)C)c2c1` [sumatriptan, 1-[3-(2-Dimethylaminoethyl)-1H-indol-5-yl]-N-methyl-methanesulfonamide] was tested. Which “skin condition of the treated elbow” value ([1]; once daily for five days, one elbow) did it give?
Its value is “Healthy skin with normalization was noted”.

What about the “scales on the treated elbow” value ([1]; once daily for five days, one elbow, person with chronic psoriasis) of the same compound?
The value was “disappearance of scales was prominent on the treated side”.

What about the “skin normalization on the complementary elbow” value ([1]; once daily, after scale disappearance) of the same compound?
The value was “skin turned into normal within the next week”.

What about the “time to scale disappearance on the complementary elbow” value ([1]; once daily, complementary elbow) of the same compound?
Its value is “three”.

And the “scales and skin condition of the treated (left) elbow” value ([2]; cream 0.04% w/w sumatriptan (40 mg/100 ml), twice daily, four days after start of use, person)?
Its value is “Disappearance of scales and skin return to normal is noted; also recorded: normalized the skin”.

What about the “duration of remission of psoriasis on the treated elbow” value ([2]; cream 0.04% w/w sumatriptan, left elbow) of the same compound?
Its value is “about one”.

What about the “additional time to completed skin normalization” value ([2]; cream 0.04% w/w sumatriptan, left elbow, counted after the first four days) of the same compound?
The value was 4 to 5 days.
